Assay results published in patent US9655967B2, “Inhibition of focal adhesion kinase for control of scar tissue formation” (The Board of Trustees of the Leland Stanford Junior …, priority 2011, dated 2017).

Key:
[1] = system: cutaneous wounds in the HTS model; assay: Murine HTS model with daily intradermal injections; format: in vivo
Protocol: Murine HTS model. We used a murine HTS model as previously published by our group, Aarabi, et al., supra.
Microscopy and immunohistochemistry. We incubated paraformaldehyde-fixed cells with primary antibody (pFAK-Y397 or FAK 1:200, BD Biosciences, San Jose, Calif.) followed by AlexaFluor488-conjugated secondary antibody (Molecular Probes/Invitrogen). We performed cytoskeletal staining with phalloidin-AF488 or Cy3-conjugated antibody against α-SMA (Sigma-Aldrich). We performed H&E, picrosirius red and trichrome staining (Sigma-Aldrich) on paraffin-embedded sections. We used primary antibodies against FAK, MCP-1, F4/80, Ki67, and α-SMA. Immunostaining was developed with VIP, NovaRed or diaminobenzidine (Vector Laboratories, Burlingame, Calif.), or secondary fluorescent antibodies AF488 or AF594. We performed apoptotic staining using the In Situ Cell Death Detection Kit (Roche). We purchased all antibodies from Abcam Inc. (Cambridge, Mass.) unless otherwise noted. We processed images for publication using Adobe Photoshop CS3 (Adobe Systems Incorporated, San Jose, Calif.) and two blinded investigators performed image quantification using ImageJ (NIH, Bethesda, Md.).
Gene expression. We performed qPCR as previously published. We used Taqman Gene Expression Assays (Applied Biosystems, Foster City, Calif.) for in vitro qPCR.
Immunoblotting. We performed immunoblotting as previously described. We used the following antibodies: FAK (BD Biosciences), p-FAK Y397, p-FAK S732, p-ERK T202/Y204 and ERK, p-Akt S473 and Akt (Cell Signaling Technology, Inc., Danvers, Mass.), p-p38 Y182 and p38, p-JNK T183/Y185 and JNK, MCP-1 and β-actin. We obtained all antibodies from Abcam Inc. unless otherwise noted.
Intradermal injections. We administered intradermal injections (300 μL) of DMSO, 15 μM PF573228, or 150 μM PF573228 to unwounded murine skin or unloaded incisions. For HTS model experiments, we injected 15 μM PF573228 or recombinant mouse Mcp-1 (1 μg mL^−1, R&D Systems Inc.) daily between days 4 and 14 post-injury.

human fibroblasts [2] = assay: Fibroblast-populated 3D-collagen lattices (contraction, α-SMA expression); format: cell-based; conditions: FIG. 3d-e
Protocol: (§1) Fibroblast harvest. We isolated primary dermal mouse fibroblasts after overnight incubation in trypsin (Gibco/Invitrogen, Carlsbad, Calif.) followed by 1 mg mL^−1 Liberase TL (Roche, Indianapolis, Ind.). We obtained human fibroblasts from fresh tissue specimens following IRB-approved protocols at Oregon Health and Sciences University. We incubated specimens overnight in 5 mg mL^−1 dispase (Roche) followed by 0.5 mg mL^−1 collagenase type I (Roche) and 0.2 mg mL^−1 trypsin. We used human cells from passages four to eight.
Fibroblast-populated collagen lattices. We performed fibroblast contraction studies as previously published, Ehrlich, Methods Mol Med 78, 277-291 (2003).
Microscopy and immunohistochemistry. We incubated paraformaldehyde-fixed cells with primary antibody (pFAK-Y397 or FAK 1:200, BD Biosciences, San Jose, Calif.) followed by AlexaFluor488-conjugated secondary antibody (Molecular Probes/Invitrogen). We performed cytoskeletal staining with phalloidin-AF488 or Cy3-conjugated antibody against α-SMA (Sigma-Aldrich). We performed H&E, picrosirius red and trichrome staining (Sigma-Aldrich) on paraffin-embedded sections. […] We processed images for publication using Adobe Photoshop CS3 (Adobe Systems Incorporated, San Jose, Calif.) and two blinded investigators performed image quantification using ImageJ (NIH, Bethesda, Md.).

human fibroblasts [3] = assay: Focal adhesion formation and spreading in human fibroblasts; format: cell-based; conditions: PF573228 treatment
Description: To substantiate the importance of these findings in human tissues, we examined FAK pathways in vitro in human fibroblasts. Following the application of strain, FAK was activated within five minutes and sustained during the static strain period (FIG. 3a-b). ERK was phosphorylated after ten minutes and its activation was critically dependent on FAK, thus recapitulating the FAK-ERK mechanotransduction axis observed in vivo. Small molecule inhibition of FAK (PF573228) was used to investigate mechanically-regulated fibroblast function during wound repair. […] Additionally, cell motility (FIG. 3c) and contraction/α-SMA expression (FIG. 3d-e) were all decreased with FAK inhibition.
as §1, with “We used human cells from passages four to eight.” left out
Microscopy and immunohistochemistry. […] We processed images for publication using Adobe Photoshop CS3 (Adobe Systems Incorporated, San Jose, Calif.) and two blinded investigators performed image quantification using ImageJ (NIH, Bethesda, Md.).

human fibroblasts [4] = assay: Scratch migration assay (fibroblast motility); format: cell-based; conditions: FIG. 3c
Protocol: as §1
In vitro wound healing. We assessed fibroblast motility using a scratch migration assay, Aarabi, et al. FASEB J 21, 3250-3261 (2007).

Row | Compound | fibrotic phenotype in FAK-deficient wounds ([1]; FAK KO mice, intradermal Mcp-1 1 μg mL^−1 daily, FIG. 2c-f) | contraction/α-SMA expression (human fibroblasts [2]) | scar formation in vivo ([1]; 15 μM PF573228 intradermal daily, days 4 to 14 post-injury, FIG. 4a) | MCP-1-associated pathways ([1]; HTS model scars) | mechanical activation of ERK ([1]; HTS model scars) | scar matrix density ([1]; post-injury day ten scars) | attenuation of epithelial proliferation ([1]; post-injury day ten scars, p<0.001) [%] | attenuation of epithelial thickness ([1]; post-injury day ten scars, p=0.004) [%] | attenuation of dermal proliferation ([1]; post-injury day ten scars, p=0.01) [%] | formation of focal adhesions (human fibroblasts [3]) | spreading in human fibroblasts (human fibroblasts [3]) | cell motility (human fibroblasts [4])
1 | Mcp-1: recombinant mouse Mcp-1 (monocyte chemoattractant protein-1/CCL2), R&D Systems Inc. | restored the fibrotic phenotype | – | – | – | – | – | – | – | – | – | – | –
2 | CS(=O)(=O)c1cccc(CNc2nc(Nc3ccc4c(c3)CCC(=O)N4)ncc2C(F)(F)F)c1 [PF573228] | – | decreased | significantly reduced | blocked | significantly decreased | attenuated | 57 | 35 | 28 | effectively inhibited | impaired | decreased
